Data: PubChem BioAssay AID1919017 (Molecular Pharmacology Branch, DTP, NCI, 2023)

Tested on: SW1271 complex spheroids with HUVEC/MSC, growth, % test/control
Assay: Anticancer human tumor SW1271 cell line growth inhibition [AhR];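 further: spheroids exposed to agents for 7 days before readout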
Conditions: for IC50: curve of first compound; for viability, T/C: stronger effect = lower value
Outline: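 Spheroids combined tumor cells with HUVEC endothelial cells and human MSCs as stroma. AhR antagonists were paired with standard or investigational drugs, each dosed in half-log steps down from near clinical Cmax, or from 10 microM where Cmax was unknown.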

[1] = second compound 0.1 µM, first compound 0.0316 µM
[2] = second compound 0.1 µM, first compound 0.1 µM
[3] = second compound 0.1 µM, first compound 0.316 µM
[4] = second compound 0.1 µM, first compound 1 µM
[5] = second compound 0.1 µM, first compound 3.16 µM
[6] = second compound 0.1 µM, first compound 10 µM
[7] = second compound 0.316 µM, first compound 0.0316 µM
[8] = second compound 0.316 µM, first compound 0.1 µM
[9] = second compound 0.316 µM, first compound 0.316 µM
[10] = second compound 0.316 µM, first compound 1 µM
[11] = second compound 0.316 µM, first compound 3.16 µM
[12] = second compound 0.316 µM, first compound 10 µM
[13] = second compound 1 µM, first compound 0.0316 µM
[14] = second compound 1 µM, first compound 0.1 µM
[15] = second compound 1 µM, first compound 0.316 µM
[16] = second compound 1 µM, first compound 1 µM
[17] = second compound 1 µM, first compound 3.16 µM
[18] = second compound 1 µM, first compound 10 µM
[19] = second compound 3.16 µM, first compound 0.0316 µM
[20] = second compound 3.16 µM, first compound 0.1 µM
[21] = second compound 3.16 µM, first compound 0.316 µM
[22] = second compound 3.16 µM, first compound 1 µM
[23] = second compound 3.16 µM, first compound 3.16 µM
[24] = second compound 3.16 µM, first compound 10 µM
[25] = second compound 10 µM, first compound 0.0316 µM
[26] = second compound 10 µM, first compound 0.1 µM
[27] = second compound 10 µM, first compound 0.316 µM
[28] = second compound 10 µM, first compound 1 µM
[29] = second compound 10 µM, first compound 3.16 µM
[30] = second compound 10 µM, first compound 10 µM

CC(C)CC(NC(=O)C(Cc1ccccc1)NC(=O)c1cnccn1)B(O)O (stereo not given) + Cc1cncc(-c2nc(NCCc3c[nH]c4ccccc34)c3ncn(C(C)C)c3n2)c1
IC50 (second compound 0.1 µM): 6.11 nM | IC50 (second compound 0.316 µM): 5.7 nM | IC50 (second compound 1 µM): 6.18 nM | IC50 (second compound 3.16 µM): 5.61 nM | IC50 (second compound 10 µM): 3.96 nM | viability, T/C (second compound 0.1 µM, first compound 0.000949 µM): 122% | viability, T/C (second compound 0.1 µM, first compound 0.003 µM): 112% | viability, T/C (second compound 0.1 µM, first compound 0.00949 µM): 11.9% | viability, T/C (second compound 0.1 µM, first compound 0.03 µM): 0.91% | viability, T/C (second compound 0.1 µM, first compound 0.0949 µM): 0.33% | viability, T/C (second compound 0.1 µM, first compound 0.3 µM): 0.46% | viability, T/C (second compound 0.316 µM, first compound 0.000949 µM): 84.3% | viability, T/C (second compound 0.316 µM, first compound 0.003 µM): 113% | viability, T/C (second compound 0.316 µM, first compound 0.00949 µM): 11.3% | viability, T/C (second compound 0.316 µM, first compound 0.03 µM): 0.73% | viability, T/C (second compound 0.316 µM, first compound 0.0949 µM): 0.67% | viability, T/C (second compound 0.316 µM, first compound 0.3 µM): 0.41% | viability, T/C (second compound 1 µM, first compound 0.000949 µM): 113% | viability, T/C (second compound 1 µM, first compound 0.003 µM): 112% | viability, T/C (second compound 1 µM, first compound 0.00949 µM): 13.4% | viability, T/C (second compound 1 µM, first compound 0.03 µM): 1.13% | viability, T/C (second compound 1 µM, first compound 0.0949 µM): 0.75% | viability, T/C (second compound 1 µM, first compound 0.3 µM): 0.48% | viability, T/C (second compound 3.16 µM, first compound 0.000949 µM): 107% | viability, T/C (second compound 3.16 µM, first compound 0.003 µM): 102% | viability, T/C (second compound 3.16 µM, first compound 0.00949 µM): 5.96% | viability, T/C (second compound 3.16 µM, first compound 0.03 µM): 0.63% | viability, T/C (second compound 3.16 µM, first compound 0.0949 µM): 0.88% | viability, T/C (second compound 3.16 µM, first compound 0.3 µM): 0.55% | viability, T/C (second compound 10 µM, first compound 0.000949 µM): 62.2% | viability, T/C (second compound 10 µM, first compound 0.003 µM): 69.2% | viability, T/C (second compound 10 µM, first compound 0.00949 µM): 0.81% | viability, T/C (second compound 10 µM, first compound 0.03 µM): 0.31% | viability, T/C (second compound 10 µM, first compound 0.0949 µM): 0.34% | viability, T/C (second compound 10 µM, first compound 0.3 µM): 0.3%

COc1cc(Nc2ncc3c(n2)-c2ccc(Cl)cc2C(c2c(F)cccc2OC)=NC3)ccc1C(=O)O + Cc1cncc(-c2nc(NCCc3c[nH]c4ccccc34)c3ncn(C(C)C)c3n2)c1
IC50 (second compound 0.1 µM): > 10000 nM | IC50 (second compound 0.316 µM): > 10000 nM | IC50 (second compound 1 µM): > 10000 nM | IC50 (second compound 3.16 µM): > 10000 nM | IC50 (second compound 10 µM): < 31.6 nM | viability, T/C [1]: 92.7% | viability, T/C [2]: 91.6% | viability, T/C [3]: 98.6% | viability, T/C [4]: 93.9% | viability, T/C [5]: 78.3% | viability, T/C [6]: 67.7% | viability, T/C [7]: 91% | viability, T/C [8]: 87.8% | viability, T/C [9]: 92% | viability, T/C [10]: 91% | viability, T/C [11]: 98.4% | viability, T/C [12]: 57.5% | viability, T/C [13]: 81.5% | viability, T/C [14]: 87.2% | viability, T/C [15]: 88.2% | viability, T/C [16]: 88.6% | viability, T/C [17]: 81.3% | viability, T/C [18]: 56.2% | viability, T/C [19]: 95.1% | viability, T/C [20]: 87.5% | viability, T/C [21]: 91.9% | viability, T/C [22]: 102% | viability, T/C [23]: 78.9% | viability, T/C [24]: 67.9% | viability, T/C [25]: 36.1% | viability, T/C [26]: 50.7% | viability, T/C [27]: 49.5% | viability, T/C [28]: 50.1% | viability, T/C [29]: 42.5% | viability, T/C [30]: 40.4%

NS(=O)(=O)OCC1CC(n2ccc3c(NC4CCc5ccccc54)ncnc32)CC1O (stereo not given) + Cc1cncc(-c2nc(NCCc3c[nH]c4ccccc34)c3ncn(C(C)C)c3n2)c1
IC50 (second compound 0.1 µM): > 10000 nM | IC50 (second compound 0.316 µM): > 10000 nM | IC50 (second compound 1 µM): > 10000 nM | IC50 (second compound 3.16 µM): > 10000 nM | IC50 (second compound 10 µM): 512 nM | viability, T/C [1]: 129% | viability, T/C [2]: 140% | viability, T/C [3]: 145% | viability, T/C [4]: 86% | viability, T/C [5]: 76.5% | viability, T/C [6]: 71.8% | viability, T/C [7]: 131% | viability, T/C [8]: 177% | viability, T/C [9]: 136% | viability, T/C [10]: 100% | viability, T/C [11]: 76.7% | viability, T/C [12]: 81% | viability, T/C [13]: 143% | viability, T/C [14]: 166% | viability, T/C [15]: 154% | viability, T/C [16]: 76.3% | viability, T/C [17]: 75% | viability, T/C [18]: 79% | viability, T/C [19]: 185% | viability, T/C [20]: 168% | viability, T/C [21]: 158% | viability, T/C [22]: 71.2% | viability, T/C [23]: 63.3% | viability, T/C [24]: 66.1% | viability, T/C [25]: 94.1% | viability, T/C [26]: 96.3% | viability, T/C [27]: 54.7% | viability, T/C [28]: 44.5% | viability, T/C [29]: 44.4% | viability, T/C [30]: 41.3%

O=C(C=Cc1cccc(S(=O)(=O)Nc2ccccc2)c1)NO + Cc1cncc(-c2nc(NCCc3c[nH]c4ccccc34)c3ncn(C(C)C)c3n2)c1
IC50 (second compound 0.1 µM): 1880 nM | IC50 (second compound 0.316 µM): 1390 nM | IC50 (second compound 1 µM): 2090 nM | IC50 (second compound 3.16 µM): 1460 nM | IC50 (second compound 10 µM): 210 nM | viability, T/C [1]: 97.2% | viability, T/C [2]: 93.9% | viability, T/C [3]: 83.2% | viability, T/C [4]: 68.3% | viability, T/C [5]: 35.5% | viability, T/C [6]: 16.9% | viability, T/C [7]: 104% | viability, T/C [8]: 102% | viability, T/C [9]: 96.8% | viability, T/C [10]: 61.9% | viability, T/C [11]: 20.2% | viability, T/C [12]: 16.6% | viability, T/C [13]: 97.4% | viability, T/C [14]: 97.8% | viability, T/C [15]: 84.5% | viability, T/C [16]: 65.4% | viability, T/C [17]: 41.7% | viability, T/C [18]: 15.9% | viability, T/C [19]: 107% | viability, T/C [20]: 115% | viability, T/C [21]: 97.7% | viability, T/C [22]: 57.5% | viability, T/C [23]: 33.7% | viability, T/C [24]: 16.6% | viability, T/C [25]: 49.9% | viability, T/C [26]: 53.5% | viability, T/C [27]: 53.1% | viability, T/C [28]: 39.8% | viability, T/C [29]: 39.2% | viability, T/C [30]: 25.5%
